# Laboratory results: patent US10059663B2, “Aromatic compound and use thereof” (Kyoto Pharmaceutical Industries, Ltd., priority 2013, dated 2018)
# Tests used:
# [1] = test system: Mouse bone marrow-derived mesenchymal cell line ST2 cells; assay: Osteoblast differentiation test (alkaline phosphatase activity); assay type: cell-based; settings: ST-2, 96 h, at 0.1 μg/mL, 4 days of culture, absorbance at 405 nm, DMSO control = 100%, read-out: alkaline phosphatase activity (increase rate in absorbance, control as 100%)
# Experimental: Mouse bone marrow-derived mesenchymal cell line ST2 cells (source of supply: RIKEN) were seeded in α-MEM medium containing 10% fetal bovine serum (source of supply: GIBCO BRL Cat. No. 12000-022) in a 96 well plate at a cell density of 4×10^3 cells/0.1 mL/well, and cultured for 24 hr under the conditions of 37° C., 5% CO2. Then, each test compound was added at a final concentration of 0.001-10 μM, and the final concentration 0.1% (v/v) of DMSO was added to the control. After 4 days of culture, alkaline phosphatase (ALP) activity was measured by the following method.
# The medium in the cultured 96 well plate was removed, the cells were washed with PBS buffer (KCl 0.2 g/L, KH2PO4 0.2 g/L, Na2HPO4.12H2O 2.9 g/L, NaCl 8 g/L) (100 μL/well), cell lysate (10 mM MgCl2, 2% (v/v) Triton X-100) (50 μL/well) was added, and the mixture was stirred at room temperature for 3 min. A substrate solution (50 mM diethanolamine (Wako Pure Chemical Industries, Ltd. Cat. No. 099-03112), 20 mM […] (Nacalai Tesque Cat. No. 25019-81)) (50 μL/well) was added, and the mixture was left standing at room temperature for 9 min. 1N NaOH 50 μL/well was added to discontinue the reaction, and the absorbance at 405 nm was measured by a microplate reader (Dainippon Pharmaceutical Co., Ltd.)
# An increase rate (%) in the absorbance by the test compound was calculated based on the absorbance of the control as 100%, and the differentiation degree of the osteoblast was evaluated.
# female F344 rats = assay: Influence on bone density (ovariectomy, femur, DXA); assay type: in vivo, rat; settings: at not more than 10 mg/kg; orally once per day, 6 or 7 days per week, 8 weeks; ovariectomized 12-week-old female F344 rats; femur by DXA
# Excerpt: 12-week-old female F344 rats (SLC) underwent ovariectomy or sham surgery under anesthesia. The test compound was suspended in 0.5% methylcellulose solution (Wako Pure Chemical Industries, Ltd. Cat. No. 133-14255) and orally administered once per day, 6 or 7 days per week, from two days after the surgery. A 0.5% methylcellulose solution was orally administered to a control group. At 8 weeks from the administration, they were euthanized by drawing the whole blood from the abdominal artery under anesthesia, and the left and right femurs were excised.
# The soft tissues were removed from the excised femurs, and the bone density was measured by DXA device DCS-600R (Aloka Co., Ltd.). The bone density was evaluated for the whole femur as well as the whole divided into three equal portions of proximal end, diaphysis and distal end portion.
smiles,measurement,setting,value
"COc1cc(Nc2ccc(N3CC(OCCO)C3)cc2)c(NC(C)=O)cn1 [Example 1, N-(4-{4-[3-(2-hydroxyethoxy)azetidin-1-yl]phenylamino}-6-methoxypyridin-3-yl)acetamide]",activity at 0.1 µg/mL,[1],≥ 200%
same,bone density,female F344 rats,significantly increased
"COc1cc(Nc2ccc(N3CC(OCCO)C3)cc2)c([N+](=O)[O-])cc1F [Example 2, 2-{1-[4-(4-fluoro-5-methoxy-2-nitrophenylamino)phenyl]azetidin-3-yloxy}ethanol]",activity at 0.1 µg/mL,[1],≥ 200%
"NC(=O)c1ccc([N+](=O)[O-])c(Nc2ccc(N3CC(OCCO)C3)cc2)c1 [Example 5, 3-{4-[3-(2-hydroxyethoxy)azetidin-1-yl]phenylamino}-4-nitrobenzamide]",activity at 0.1 µg/mL,[1],≥ 200%
"CC(=O)c1ccc(C(N)=O)cc1Nc1ccc(N2CC(OCCO)C2)cc1 [Example 6, 4-acetyl-3-{4-[3-(2-hydroxyethoxy)azetidin-1-yl]phenylamino}benzamide]",activity at 0.1 µg/mL,[1],≥ 200%
"COc1cc(Nc2ccc(N3CC(N4CCC(CO)CC4)C3)cc2)c(NC(C)=O)cn1 [Example 8, N-(4-{4-[3-(4-hydroxymethylpiperidin-1-yl)azetidin-1-yl]phenylamino}-6-methoxypyridin-3-yl)acetamide]",activity at 0.1 µg/mL,[1],≥ 200%
"COc1cc(Nc2ccc(N3CC(N4CCOCC4)C3)cc2)c(NC(C)=O)cn1 [Example 9, N-{6-methoxy-4-[4-(3-morpholin-4-ylazetidin-1-yl)phenylamino]pyridin-3-yl}acetamide]",activity at 0.1 µg/mL,[1],≥ 200%
"COc1cc(Nc2ccc(N3CCN(CC(C)(C)C(=O)O)CC3)cc2)c([N+](=O)[O-])cc1F [Example 13, 3-{4-[4-(4-fluoro-5-methoxy-2-nitrophenylamino)phenyl]piperazin-1-yl}-2,2-dimethylpropionic acid]",activity at 0.1 µg/mL,[1],≥ 200%
"COc1cc(Nc2ccc(N3CC(OCCNS(N)(=O)=O)C3)cc2)c(NC(C)=O)cn1 [Example 16, N-(4-{4-[3-(2-sulfamoylaminoethoxy)azetidin-1-yl]phenylamino}-6-methoxypyridin-3-yl)acetamide]",activity at 0.1 µg/mL,[1],≥ 200%
"CC(=O)c1ccc(C(N)=O)cc1Nc1ccc(OCCOC2CCOCC2)cc1 [Example 17, 4-acetyl-3-{4-[2-(tetrahydropyran-4-yloxy)ethoxy]phenylamino}benzamide]",activity at 0.1 µg/mL,[1],≥ 200%
"CC(F)(F)c1ccc(C(N)=O)cc1Nc1ccc(OCCOC2CCOCC2)cc1 [Example 18, 4-(1,1-difluoroethyl)-3-{4-[2-(tetrahydropyran-4-yloxy)ethoxy]phenylamino}benzamide]",activity at 0.1 µg/mL,[1],≥ 200%
"CC(=O)c1ccc(C(N)=O)cc1Nc1ccc(OCCOC2CCS(=O)(=O)CC2)cc1 [Example 20, 4-acetyl-3-{4-[2-(1,1-dioxohexahydro-1λ^6-thiopyran-4-yloxy)ethoxy]phenylamino}benzamide]",activity at 0.1 µg/mL,[1],≥ 200%
"CC(=O)c1ccc(C(N)=O)cc1Oc1ccc(N2CC(OCCO)C2)cc1 [Example 28, 4-acetyl-3-{4-[3-(2-hydroxyethoxy)azetidin-1-yl]phenoxy}benzamide]",activity at 0.1 µg/mL,[1],≥ 200%
"CC(=O)c1ccc(C(N)=O)c(Oc2ccc(N3CC(OCCO)C3)cc2)c1 [Example 29, 4-acetyl-2-{4-[3-(2-hydroxyethoxy)azetidin-1-yl]phenoxy}benzamide]",activity at 0.1 µg/mL,[1],≥ 200%
"CC(=O)c1ccc(C(N)=O)cc1Oc1ccc(N2CCC(OCCO)CC2)cc1 [Example 30, 4-acetyl-3-{4-[4-(2-hydroxyethoxy)piperidin-1-yl]phenoxy}benzamide]",activity at 0.1 µg/mL,[1],≥ 200%
"CC(=O)c1ccc(C(N)=O)cc1Oc1ccc(OCCOC2CCOCC2)cc1 [Example 32, 4-acetyl-3-{4-[2-(tetrahydropyran-4-yloxy)ethoxy]phenoxy}benzamide]",activity at 0.1 µg/mL,[1],≥ 200%
same,bone density,female F344 rats,significantly increased
"CC(=O)c1ccc(C(N)=O)cc1Oc1ccc(OCCOCCOC(C)C)cc1 [Example 33, 4-acetyl-3-{4-[2-(2-isopropoxyethoxy)ethoxy]phenoxy}benzamide]",activity at 0.1 µg/mL,[1],≥ 200%
"CC(=O)c1ccc(C(N)=O)cc1Oc1ccc(/C=C/COC2CCOCC2)cc1 [Example 34, 4-acetyl-3-{4-[3-(tetrahydropyran-4-yloxy)propenyl]phenoxy}benzamide]",activity at 0.1 µg/mL,[1],≥ 200%
"NC(=O)c1ccc(C(F)F)c(Oc2ccc(OCCOC3CCOCC3)cc2)c1 [Example 35, 4-difluoromethyl-3-{4-[2-(tetrahydropyran-4-yloxy)ethoxy]phenoxy}benzamide]",activity at 0.1 µg/mL,[1],≥ 200%
"CC(F)c1ccc(C(N)=O)cc1Oc1ccc(OCCOC2CCOCC2)cc1 (stereo not shown) [Example 39, 4-(1-fluoroethyl)-3-{4-[2-(tetrahydropyran-4-yloxy)ethoxy]phenoxy}benzamide]",activity at 0.1 µg/mL,[1],≥ 200%
"CC(=O)c1ccc(C(N)=O)cc1Oc1ccc(COCCOC(C)C)cc1 [Example 40, 4-acetyl-3-[4-(2-isopropoxyethoxymethyl)phenoxy]benzamide]",activity at 0.1 µg/mL,[1],≥ 200%
"CC(=O)c1ccc(C(N)=O)cc1Oc1ccc(COC2CCOCC2)cc1 [Example 41, 4-acetyl-3-[4-(tetrahydropyran-4-yloxymethyl)phenoxy]benzamide]",activity at 0.1 µg/mL,[1],≥ 200%
CCC(=O)Nc1cnc(OC)cc1Nc1ccc(N2CC(OCCO)C2)cc1 [Example 45],activity at 0.1 µg/mL,[1],≥ 200%
NC(=O)c1ccc(C(F)(F)F)c(Nc2ccc(N3CC(OCCO)C3)cc2)c1 [Example 47],activity at 0.1 µg/mL,[1],≥ 200%
CNC(=O)c1ccc([N+](=O)[O-])c(Nc2ccc(N3CC(OCCO)C3)cc2)c1 [Example 48],activity at 0.1 µg/mL,[1],≥ 200%
NC(=O)c1ccc([N+](=O)[O-])c(Nc2ccc(OCCOC3CCOCC3)cc2)c1 [Example 50],activity at 0.1 µg/mL,[1],≥ 200%
CC(=O)c1ccc(C(N)=O)cc1Nc1ccc(OCCOC2CCOC2)cc1 (stereo not shown) [Example 53],activity at 0.1 µg/mL,[1],≥ 200%
CC(=O)c1ccc(C(N)=O)c(Nc2ccc(OCCOC3CCOCC3)cc2)c1 [Example 57],activity at 0.1 µg/mL,[1],≥ 200%
CC(=O)c1ccc(C(N)=O)c(Nc2ccc(OCCOC3CCS(=O)(=O)CC3)cc2)c1 [Example 58],activity at 0.1 µg/mL,[1],≥ 200%
NC(=O)c1ccc(C(F)(F)F)c(Oc2ccc(N3CC(OCCO)C3)cc2)c1 [Example 62],activity at 0.1 µg/mL,[1],≥ 200%
NC(=O)c1ccc([N+](=O)[O-])c(Oc2ccc(N3CCC(OCCO)CC3)cc2)c1 [Example 63],activity at 0.1 µg/mL,[1],≥ 200%
NC(=O)c1ccc(C(F)(F)F)c(Oc2ccc(OCCOC3CCOCC3)cc2)c1 [Example 64],activity at 0.1 µg/mL,[1],≥ 200%
CC(C)OCCOCCOc1ccc(Oc2cc(C(N)=O)ccc2C(F)(F)F)cc1 [Example 65],activity at 0.1 µg/mL,[1],≥ 200%
CC(=O)c1ccc(C(N)=O)cc1Oc1ccc(CCCOC2CCOCC2)cc1 [Example 66],activity at 0.1 µg/mL,[1],≥ 200%
CC(=O)c1ccc(C(N)=O)c(Oc2ccc(OCCOC3CCOCC3)cc2)c1 [Example 70],activity at 0.1 µg/mL,[1],≥ 200%
CC(F)(F)c1ccc(C(N)=O)cc1Oc1ccc(OCCOC2CCOCC2)cc1 [Example 74],activity at 0.1 µg/mL,[1],≥ 200%
NC(=O)c1ccc(C(F)(F)F)c(Oc2ccc(COC3CCOCC3)cc2)c1 [Example 82],activity at 0.1 µg/mL,[1],≥ 200%
NC(=O)c1ccc(C(F)F)c(Oc2ccc(COC3CCOCC3)cc2)c1 [Example 83],activity at 0.1 µg/mL,[1],≥ 200%
C[C@@H](O)c1ccc(C(N)=O)cc1Oc1ccc(N2CC(OCCO)C2)cc1 [Example 85],activity at 0.1 µg/mL,[1],≥ 200%
COc1cc(Nc2ccc(N3CC(O)C3)cc2)c(NC(C)=O)cn1 [Example 88],activity at 0.1 µg/mL,[1],≥ 200%
COc1cc(Nc2ccc(N3CC(OCC4CCCO4)C3)cc2)c(NC(C)=O)cn1 (stereo not shown) [Example 89],activity at 0.1 µg/mL,[1],≥ 200%
NC(=O)c1ccc([N+](=O)[O-])c(Nc2ccc(N3CC(OCC4CCCO4)C3)cc2)c1 (stereo not shown) [Example 90],activity at 0.1 µg/mL,[1],≥ 200%
CC(=O)Nc1ccc(C(N)=O)cc1Nc1ccc(N2CC(OCC3CCCO3)C2)cc1 (stereo not shown) [Example 91],activity at 0.1 µg/mL,[1],≥ 200%
CC(=O)c1ccc(C(N)=O)cc1Nc1ccc(N2CC(OCC3CCCO3)C2)cc1 (stereo not shown) [Example 92],activity at 0.1 µg/mL,[1],≥ 200%
C[C@@H](O)c1ccc(C(N)=O)cc1Oc1ccc(N2CC(CO)C2)cc1 [Example 94],activity at 0.1 µg/mL,[1],≥ 200%
CC(=O)c1ccc(C(N)=O)cc1Oc1ccc(N2CC(CO)C2)cc1 [Example 95],activity at 0.1 µg/mL,[1],≥ 200%
CC(=O)c1ccc(C(N)=O)cc1Oc1ccc(N2CC(O)C2)cc1 [Example 96],activity at 0.1 µg/mL,[1],≥ 200%
CC(=O)c1ccc(C(N)=O)cc1Oc1ccc(N2CCC2)cc1 [Example 97],activity at 0.1 µg/mL,[1],≥ 200%
